Assay results published in patent US9629861B2, “Compositions and methods for treating bacterial infections using ceftaroline” (Forest Laboratories Holdings Limited, priority 2009, dated 2017).

Columns and labels:
[1] = Pharmacokinetics in healthy elderly subjects; type: in vivo, human; details: healthy elderly (≧65 years); 600 mg IV dose
[2] = Pharmacokinetics in adolescent patients; type: in vivo, human; details: adolescents 12 to 17; 8 mg/kg ceftaroline fosamil (or 600 mg if >75 kg)
Description: The pharmacokinetics of ceftaroline were evaluated in adolescent patients (ages 12 to 17) with normal renal function.

[3] = target: T1, CYP1A1 (Homo sapiens, UniProt P04798); assay: CYP inhibition in human liver microsomes; type: in vitro ADME
T1 construct: In vitro studies in human liver microsomes; from tissue; host or cells: human liver microsomes
T1 sequence (P04798 whole entry): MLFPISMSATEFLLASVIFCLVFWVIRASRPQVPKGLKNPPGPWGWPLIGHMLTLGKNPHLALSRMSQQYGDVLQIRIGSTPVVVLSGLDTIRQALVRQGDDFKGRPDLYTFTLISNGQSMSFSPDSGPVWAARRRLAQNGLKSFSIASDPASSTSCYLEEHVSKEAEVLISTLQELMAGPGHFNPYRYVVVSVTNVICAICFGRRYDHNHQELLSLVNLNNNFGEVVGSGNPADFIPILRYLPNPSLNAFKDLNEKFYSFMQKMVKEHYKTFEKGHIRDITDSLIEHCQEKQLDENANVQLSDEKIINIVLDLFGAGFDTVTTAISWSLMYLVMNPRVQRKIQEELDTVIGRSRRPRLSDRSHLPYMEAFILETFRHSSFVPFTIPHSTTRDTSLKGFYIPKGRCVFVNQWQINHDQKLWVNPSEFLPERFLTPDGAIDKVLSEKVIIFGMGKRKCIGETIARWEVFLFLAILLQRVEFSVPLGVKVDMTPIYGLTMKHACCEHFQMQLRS

[4] = target: CYP1A2 (Homo sapiens, UniProt P05177); type: in vitro ADME; details: human liver microsomes
Sequence of CYP1A2 (Homo sapiens, UniProt P05177) (P05177 whole entry): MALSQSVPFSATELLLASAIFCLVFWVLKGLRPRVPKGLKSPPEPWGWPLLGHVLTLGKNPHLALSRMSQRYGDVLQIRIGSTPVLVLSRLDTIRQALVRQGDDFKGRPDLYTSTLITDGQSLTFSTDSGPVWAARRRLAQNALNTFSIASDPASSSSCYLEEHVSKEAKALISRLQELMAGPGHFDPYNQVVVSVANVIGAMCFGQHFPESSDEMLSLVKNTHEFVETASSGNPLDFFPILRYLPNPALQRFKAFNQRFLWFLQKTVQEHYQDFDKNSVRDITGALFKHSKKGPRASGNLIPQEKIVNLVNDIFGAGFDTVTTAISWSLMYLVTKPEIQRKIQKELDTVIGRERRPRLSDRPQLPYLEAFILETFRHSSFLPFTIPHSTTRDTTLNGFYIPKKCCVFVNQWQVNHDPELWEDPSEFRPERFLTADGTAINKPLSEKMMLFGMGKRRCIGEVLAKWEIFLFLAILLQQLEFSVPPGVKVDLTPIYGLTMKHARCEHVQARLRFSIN

[5] = target: T2, CYP2A6 (Homo sapiens, UniProt P11509); assay: CYP inhibition in human liver microsomes; type: in vitro ADME
T2 construct: In vitro studies in human liver microsomes; from tissue; host or cells: human liver microsomes
T2 sequence (P11509 whole entry): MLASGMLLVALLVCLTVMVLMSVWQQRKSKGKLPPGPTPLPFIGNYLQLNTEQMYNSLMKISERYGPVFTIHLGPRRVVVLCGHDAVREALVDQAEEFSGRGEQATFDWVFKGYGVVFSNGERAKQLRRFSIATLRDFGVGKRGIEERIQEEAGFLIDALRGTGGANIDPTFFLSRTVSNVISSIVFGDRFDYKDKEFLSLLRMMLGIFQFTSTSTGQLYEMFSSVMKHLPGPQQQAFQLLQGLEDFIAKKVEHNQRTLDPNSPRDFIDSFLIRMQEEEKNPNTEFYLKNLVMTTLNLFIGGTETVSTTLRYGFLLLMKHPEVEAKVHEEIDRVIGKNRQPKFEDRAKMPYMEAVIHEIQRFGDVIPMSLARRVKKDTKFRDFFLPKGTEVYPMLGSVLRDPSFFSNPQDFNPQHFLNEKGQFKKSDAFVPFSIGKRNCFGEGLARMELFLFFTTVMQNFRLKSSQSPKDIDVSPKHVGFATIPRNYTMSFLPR

[6] = target: T3, CYP2B6 (Homo sapiens, UniProt P20813); assay: CYP inhibition in human liver microsomes; type: in vitro ADME
T3 construct: In vitro studies in human liver microsomes; from tissue; host or cells: human liver microsomes
T3 sequence (P20813 whole entry): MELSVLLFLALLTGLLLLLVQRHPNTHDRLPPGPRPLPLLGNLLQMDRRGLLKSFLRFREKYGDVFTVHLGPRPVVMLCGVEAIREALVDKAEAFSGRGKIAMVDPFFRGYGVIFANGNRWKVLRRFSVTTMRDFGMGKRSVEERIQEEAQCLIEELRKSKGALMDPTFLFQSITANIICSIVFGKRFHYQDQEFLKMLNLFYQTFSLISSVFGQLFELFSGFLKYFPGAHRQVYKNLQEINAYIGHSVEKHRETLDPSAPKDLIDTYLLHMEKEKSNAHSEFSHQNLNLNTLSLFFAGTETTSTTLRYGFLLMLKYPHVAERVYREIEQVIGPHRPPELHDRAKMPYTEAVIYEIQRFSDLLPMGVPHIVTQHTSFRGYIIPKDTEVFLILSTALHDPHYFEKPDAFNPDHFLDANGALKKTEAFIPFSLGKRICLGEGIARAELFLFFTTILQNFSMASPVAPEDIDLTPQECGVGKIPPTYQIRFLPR

[7] = target: T4, CYP2C8 (Homo sapiens, UniProt P10632); assay: CYP inhibition in human liver microsomes; type: in vitro ADME
T4 construct: In vitro studies in human liver microsomes; from tissue; host or cells: human liver microsomes
T4 sequence (P10632 whole entry): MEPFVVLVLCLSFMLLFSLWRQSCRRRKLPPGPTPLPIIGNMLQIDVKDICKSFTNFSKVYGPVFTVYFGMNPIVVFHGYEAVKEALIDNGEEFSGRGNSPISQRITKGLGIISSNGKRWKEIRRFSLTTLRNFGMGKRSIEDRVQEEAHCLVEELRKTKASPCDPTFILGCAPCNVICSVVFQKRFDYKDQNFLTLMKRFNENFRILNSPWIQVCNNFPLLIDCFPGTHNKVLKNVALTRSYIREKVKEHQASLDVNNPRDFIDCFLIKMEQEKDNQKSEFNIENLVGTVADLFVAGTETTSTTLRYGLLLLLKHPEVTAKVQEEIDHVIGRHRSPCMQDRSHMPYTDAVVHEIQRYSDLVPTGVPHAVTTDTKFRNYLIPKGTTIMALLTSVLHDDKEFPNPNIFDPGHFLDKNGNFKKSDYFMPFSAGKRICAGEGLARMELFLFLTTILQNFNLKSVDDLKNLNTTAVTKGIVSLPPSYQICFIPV

[8] = target: T5, CYP2C9 (Homo sapiens, UniProt P11712); assay: CYP inhibition in human liver microsomes; type: in vitro ADME
T5 construct: In vitro studies in human liver microsomes; from tissue; host or cells: human liver microsomes
T5 sequence (P11712 whole entry): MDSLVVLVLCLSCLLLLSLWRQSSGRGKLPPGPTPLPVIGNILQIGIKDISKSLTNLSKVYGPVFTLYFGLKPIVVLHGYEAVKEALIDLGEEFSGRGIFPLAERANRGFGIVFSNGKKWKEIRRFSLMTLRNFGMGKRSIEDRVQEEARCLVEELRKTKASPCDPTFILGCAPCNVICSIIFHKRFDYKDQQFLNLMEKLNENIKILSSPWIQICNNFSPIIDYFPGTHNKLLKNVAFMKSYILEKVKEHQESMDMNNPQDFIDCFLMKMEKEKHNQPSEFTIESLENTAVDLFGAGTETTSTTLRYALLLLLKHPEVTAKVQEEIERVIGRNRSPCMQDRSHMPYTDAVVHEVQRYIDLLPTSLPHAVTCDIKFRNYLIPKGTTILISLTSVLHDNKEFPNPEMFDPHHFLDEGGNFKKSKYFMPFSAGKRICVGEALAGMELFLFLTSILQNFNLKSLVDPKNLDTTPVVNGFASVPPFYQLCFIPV

[9] = target: T6, CYP2C19 (Homo sapiens, UniProt P33261); assay: CYP inhibition in human liver microsomes; type: in vitro ADME
T6 construct: In vitro studies in human liver microsomes; from tissue; host or cells: human liver microsomes
T6 sequence (P33261 whole entry): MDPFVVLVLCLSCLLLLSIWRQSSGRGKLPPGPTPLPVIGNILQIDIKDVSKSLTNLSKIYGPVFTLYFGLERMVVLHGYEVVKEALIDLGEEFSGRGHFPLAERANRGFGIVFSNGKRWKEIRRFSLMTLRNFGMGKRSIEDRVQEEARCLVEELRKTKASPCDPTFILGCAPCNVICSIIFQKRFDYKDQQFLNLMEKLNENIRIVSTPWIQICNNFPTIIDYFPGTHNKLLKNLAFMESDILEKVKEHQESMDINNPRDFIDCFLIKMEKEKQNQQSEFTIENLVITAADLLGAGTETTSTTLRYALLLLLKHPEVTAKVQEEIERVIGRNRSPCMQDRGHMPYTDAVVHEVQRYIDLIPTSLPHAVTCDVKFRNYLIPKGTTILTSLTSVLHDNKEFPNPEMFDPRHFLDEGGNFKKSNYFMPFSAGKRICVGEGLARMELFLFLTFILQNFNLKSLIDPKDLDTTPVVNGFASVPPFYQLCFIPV

[10] = target: T7, CYP2D6 (Homo sapiens, UniProt P10635); assay: CYP inhibition in human liver microsomes; type: in vitro ADME
T7 construct: In vitro studies in human liver microsomes; from tissue; host or cells: human liver microsomes
T7 sequence (P10635 whole entry): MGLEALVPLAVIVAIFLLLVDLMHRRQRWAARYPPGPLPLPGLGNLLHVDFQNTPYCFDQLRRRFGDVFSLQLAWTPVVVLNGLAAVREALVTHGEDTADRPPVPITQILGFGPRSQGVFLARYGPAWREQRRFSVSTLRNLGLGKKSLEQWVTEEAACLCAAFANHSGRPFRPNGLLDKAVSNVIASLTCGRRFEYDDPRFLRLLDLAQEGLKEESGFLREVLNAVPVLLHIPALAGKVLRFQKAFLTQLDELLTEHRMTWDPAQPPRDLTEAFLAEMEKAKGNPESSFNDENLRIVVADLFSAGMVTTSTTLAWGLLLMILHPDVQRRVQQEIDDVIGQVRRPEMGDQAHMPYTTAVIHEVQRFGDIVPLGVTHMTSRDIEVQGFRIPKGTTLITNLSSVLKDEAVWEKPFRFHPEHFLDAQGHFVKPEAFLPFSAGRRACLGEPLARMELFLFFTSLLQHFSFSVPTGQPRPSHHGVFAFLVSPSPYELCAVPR

[11] = target: T8, CYP2E1 (Homo sapiens, UniProt P05181); assay: CYP inhibition in human liver microsomes; type: in vitro ADME
T8 construct: In vitro studies in human liver microsomes; from tissue; host or cells: human liver microsomes
T8 sequence (P05181 whole entry): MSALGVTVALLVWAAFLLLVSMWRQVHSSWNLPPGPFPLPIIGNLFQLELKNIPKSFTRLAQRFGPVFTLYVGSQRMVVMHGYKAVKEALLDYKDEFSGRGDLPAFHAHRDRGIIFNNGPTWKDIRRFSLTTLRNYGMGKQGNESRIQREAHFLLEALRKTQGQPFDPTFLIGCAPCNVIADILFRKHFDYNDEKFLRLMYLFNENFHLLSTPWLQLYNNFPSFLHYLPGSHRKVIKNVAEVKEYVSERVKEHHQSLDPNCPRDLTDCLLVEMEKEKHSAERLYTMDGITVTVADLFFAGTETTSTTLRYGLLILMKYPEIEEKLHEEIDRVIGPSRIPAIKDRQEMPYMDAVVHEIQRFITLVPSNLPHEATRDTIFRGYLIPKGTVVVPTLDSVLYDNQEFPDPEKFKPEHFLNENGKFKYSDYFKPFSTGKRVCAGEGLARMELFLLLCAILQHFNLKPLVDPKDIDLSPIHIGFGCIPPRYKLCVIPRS

[12] = tested on: CYP3A4/5; assay: CYP induction in human hepatocytes; type: in vitro ADME
[13] = tested on: Community-Acquired Bacterial Pneumonia (CABP); assay: Phase 3 CABP Study 1 (Example 5, adjunctive clarithromycin); type: in vivo, human; details: for Clinical Cure Rate at TOC / Treatment Difference in clinical cure rate at TOC: CABP Study 1; for Difference, clinical cure rate at EOT / Difference, favorable microbiological outcome at TOC: ceftaroline minus ceftriaxone, Example 5; for Treatment Difference in clinical cure rate at TOC: versus ceftriaxone
Description: In both treatment groups of CABP Study 1, two doses of oral clarithromycin (500 mg q12h), were administered as adjunctive therapy starting on Study Day 1. No adjunctive macrolide therapy was used in CABP Study 2. Patients with new or progressive pulmonary infiltrate(s) on chest radiography and clinical signs and symptoms consistent with CABP with the need for hospitalization and IV therapy were enrolled in the studies. Treatment duration was 5 to 7 days. A switch to oral therapy was not allowed. The Modified Intent-to-Treat Efficacy (MITTE) population included all patients who received any amount of study drug according to their randomized treatment group and were in PORT (Pneumonia Outcomes Research Team) Risk Class III or IV.
The primary efficacy endpoint was the clinical response at the Test of Cure (TOC) visit in the co-primary CE and MITTE populations (Table 4).
The secondary objective of the study was to evaluate the following: the clinical response at end-of-therapy (EOT); the microbiological favorable outcome rate at TOC; the overall (clinical and radiographic) success rate at TOC; the clinical and microbiological response by pathogen at TOC; clinical relapse at late follow-up (LFU); microbiological reinfection/recurrence at LFU; and safety.
The primary efficacy outcome measures were the per-subject clinical cure rate at TOC in the CE and MITTE Populations. Subjects were considered clinically cured at TOC if they had total resolution of all signs and symptoms of the baseline infection, or improvement of the infection such that no further antimicrobial therapy was necessary.
Non-inferiority was concluded if the lower limit of the 95% CI was higher than −10%.

[14] = tested on: MDRSP; assay: Example 4 CAP study, outcome by baseline pathogen; type: in vivo, Streptococcus pneumoniae
Text: (§1) Per-pathogen clinical cure rate and favorable microbiological outcome rate at TOC in the mMITTE and ME Populations;

[15] = tested on: S. pneumoniae; assay: Example 4 CAP study, outcome by baseline pathogen; type: in vivo, Streptococcus pneumoniae
Text: as §1

[16] = tested on: H. influenzae; assay: Example 4 CAP study, outcome by baseline pathogen; type: in vivo, Haemophilus influenzae
Text: as §1

[17] = tested on: MDRSP; assay: Example 5 CAP study, outcome by baseline pathogen; type: in vivo, Streptococcus pneumoniae
Text: as §1

[18] = tested on: S. pneumoniae; assay: Example 5 CAP study, outcome by baseline pathogen; type: in vivo, Streptococcus pneumoniae
Text: as §1

[19] = tested on: H. parainfluenzae; assay: Example 5 CAP study, outcome by baseline pathogen; type: in vivo, Haemophilus parainfluenzae
Text: as §1

[20] = tested on: H. influenzae; assay: Example 5 CAP study, outcome by baseline pathogen; type: in vivo
Text: as §1

[21] = tested on: E. coli; assay: Example 5 CAP study, outcome by baseline pathogen; type: in vivo, Escherichia coli
Text: as §1

[22] = human, in vivo
[23] = tested on: CYP1A2; details: human hepatocytes
[24] = tested on: CYP2C19; details: human hepatocytes

CCO/N=C(\C(=O)N[C@@H]1C(=O)N2C(C(=O)[O-])=C(Sc3nc(-c4cc[n+](C)cc4)cs3)CS[C@H]12)c1nsc(N)n1 [Ceftaroline]
Cmax, elderly versus younger subjects [1]: not significantly different | mean AUC less than in adult subjects after 600 mg [2]: ~23% | mean Cmax less than in adult subjects after 600 mg [2]: about 10% | inhibition of CYP1A1 [3]: neither ceftaroline fosamil nor ceftaroline inhibits | inhibition of CYP1A2 [4]: neither ceftaroline fosamil nor ceftaroline inhibits | inhibition of CYP2A6 [5]: neither ceftaroline fosamil nor ceftaroline inhibits | inhibition of CYP2B6 [6]: neither ceftaroline fosamil nor ceftaroline inhibits | inhibition of CYP2C8 [7]: neither ceftaroline fosamil nor ceftaroline inhibits | inhibition of CYP2C9 [8]: neither ceftaroline fosamil nor ceftaroline inhibits | inhibition of CYP2C19 [9]: neither ceftaroline fosamil nor ceftaroline inhibits | inhibition of CYP2D6 [10]: neither ceftaroline fosamil nor ceftaroline inhibits | inhibition of CYP2E1 [11]: neither ceftaroline fosamil nor ceftaroline inhibits | induction of CYP3A4/5 [12]: not inducers | Clinical Cure Rate at TOC ([13]; CE population): 194 (86.6) % | Clinical Cure Rate at TOC ([13]; MITTE population): 244 (83.8) % | Difference, clinical cure rate at EOT ([13]; CE): 7.6% | Difference, favorable microbiological outcome at TOC ([13]; ME): 11.0% | Difference, clinical cure rate at EOT ([13]; MITTE): 6.3% | Difference, favorable microbiological outcome at TOC ([13]; mMITTE): 9.3% | Treatment Difference in clinical cure rate at TOC ([13]; CE): 8.4% | Treatment Difference in clinical cure rate at TOC ([13]; MITTE): 6.2% | Favorable Microbiological Outcome at TOC by Baseline Pathogen ([14]; ME): 2/2 (100.0) % | Clinical Cure Rate at the TOC Visit by Baseline Pathogen ([14]; ME population): 2/2 (100.0) % | Favorable Microbiological Outcome at TOC by Baseline Pathogen ([15]; ME): 35/39 (89.7) % | Clinical Cure Rate at the TOC Visit by Baseline Pathogen ([15]; ME population): 33/39 (84.6) % | Favorable Microbiological Outcome at TOC by Baseline Pathogen ([16]; ME): 13/15 (86.7) % | Clinical Cure Rate at the TOC Visit by Baseline Pathogen ([16]; ME population): 13/15 (86.7) % | Favorable Microbiological Outcome at TOC by Baseline Pathogen ([17]; ME): 2/2 (100.0) % | Clinical Cure Rate at the TOC Visit by Baseline Pathogen ([17]; ME population): 2/2 (100.0) % | Favorable Microbiological Outcome at TOC by Baseline Pathogen ([18]; ME): 21/24 (87.5) % | Clinical Cure Rate at the TOC Visit by Baseline Pathogen ([18]; ME population): 21/24 (87.5) % | Favorable Microbiological Outcome at TOC by Baseline Pathogen ([19]; ME): 7/7 (100.0) % | Clinical Cure Rate at the TOC Visit by Baseline Pathogen ([19]; ME population): 7/7 (100.0) % | Favorable Microbiological Outcome at TOC by Baseline Pathogen ([20]; ME): 2/3 (66.7) % | Clinical Cure Rate at the TOC Visit by Baseline Pathogen ([20]; ME population): 2/3 (66.7) % | Favorable Microbiological Outcome at TOC by Baseline Pathogen ([21]; ME): 8/8 (100.0) % | Clinical Cure Rate at the TOC Visit by Baseline Pathogen ([21]; ME population): 8/8 (100.0) % | exposure (Cmax and AUC) with concomitant inhibitors, inducers and substrates of cytochrome P450 [22]: did not identify any clinically relevant increases | induction of CYP1A2 [23]: not inducers | induction of CYP2C19 [24]: not inducers
